Data as given in paper PMC6934184, “Selective DNA-PKcs inhibition extends the therapeutic index of localized radiotherapy and chemotherapy” (The Journal of Clinical Investigation, 2019).

Molecular target: T1, MAP4K2 (GCK) (Homo sapiens, UniProt Q12851)
T1 construct: purchased Thermo Fisher Scientific (Life Technologies) SelectScreen
Assay: SelectScreen Z'LYTE
Assay type: biochemical
Summary of the method: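 NU5455 was profiled across the SelectScreen Broad panel of kinase activity and binding assays. Z'LYTE reactions such as CSF1R ran at apparent Km ATP, while the Adapta CAMK1 assay used ATP listed as 10. Values are given as percent.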

T1 sequence (Q12851 whole entry): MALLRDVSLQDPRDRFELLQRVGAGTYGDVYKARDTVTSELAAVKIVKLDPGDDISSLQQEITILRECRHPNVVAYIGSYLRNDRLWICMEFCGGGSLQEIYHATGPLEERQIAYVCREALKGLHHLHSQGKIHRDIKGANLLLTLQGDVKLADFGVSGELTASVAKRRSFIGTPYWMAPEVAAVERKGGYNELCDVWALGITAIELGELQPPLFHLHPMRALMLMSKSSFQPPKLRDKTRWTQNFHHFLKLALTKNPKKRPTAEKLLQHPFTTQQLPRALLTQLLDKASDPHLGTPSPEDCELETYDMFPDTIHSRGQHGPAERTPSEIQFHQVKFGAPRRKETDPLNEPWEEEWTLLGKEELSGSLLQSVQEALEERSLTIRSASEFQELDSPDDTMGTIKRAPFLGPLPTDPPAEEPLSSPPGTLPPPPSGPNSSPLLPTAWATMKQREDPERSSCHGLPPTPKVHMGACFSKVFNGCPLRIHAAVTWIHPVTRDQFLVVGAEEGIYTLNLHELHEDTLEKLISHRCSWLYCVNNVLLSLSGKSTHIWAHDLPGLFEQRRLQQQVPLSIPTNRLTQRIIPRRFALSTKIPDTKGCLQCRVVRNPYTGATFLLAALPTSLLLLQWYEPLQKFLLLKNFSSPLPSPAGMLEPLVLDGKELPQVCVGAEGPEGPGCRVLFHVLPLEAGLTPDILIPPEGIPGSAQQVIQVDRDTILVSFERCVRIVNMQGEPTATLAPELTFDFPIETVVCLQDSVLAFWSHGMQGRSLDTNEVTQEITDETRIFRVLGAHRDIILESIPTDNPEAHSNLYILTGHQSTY

CN(C(=O)CN1CCOCC1)c1ccc2sc3c(-c4cccc5c(=O)cc(N6CC7CCC(C6)O7)oc45)cccc3c2c1 [NU5455]
inhibition at 1 µM: 2.7%
